Paper PMC11912728, “L-asparaginase from the novel Fusarium falciforme AUMC 16563: extraction, purification, characterization, and cytotoxic effects on PC-3, HePG-2, HCT-116, and MCF-7 cell lines” (BMC Microbiology, 2025)

What follows are molecules tested on T1, L-asparaginase (pure asparaginase) from Fusarium falciforme AUMC 16563 (assay: Nesslerization (ammonia release, […] nm), Lineweaver-Burk). Details: substrate 2.0-20.0 mM; pH and temperature of the kinetic assay not given.
T1 construct: native extracellular enzyme purified from culture supernatant (ethanol, DEAE-cellulose, Sephacryl S-200 HR)
Format: biochemical
In the case of `NC(=O)C[C@H](N)C(=O)O` [L-asparagine], the Km is reported as 0.0577 mM.
For `NC(=O)CC[C@H](N)C(=O)O` [L-glutamine], the Km was 9.12 mM.
For `N[C@@H](CC(=O)O)C(=O)O` [aspartic acid], the Km was 10.1 mM.
Work on `N[C@@H](CCC(=O)O)C(=O)O` [glutamic acid] yielded a Km of 12.2 mM.
